Data from ChEMBL document CHEMBL4680187, “Optimization of EphA2 antagonists based on a lithocholic acid core led to the identification of UniPR505, a new 3α-carbamoyloxy derivative with antiangiogenetic properties” (Eur J Med Chem, 2020).

Experiments:
Ephrin type-A receptor 7 = Ephrin type-A receptor 7 (Mus musculus, UniProt Q61772); test: Displacement of biotinylated ephrin-A1-Fc from mouse EphA7 Fc preincubated for 1 hr followed by ephrin-A1-FC addition and measured after 4 hrs by ELISA
Ephrin type-A receptor 6 = biological target: T1, Ephrin type-A receptor 6 (Mus musculus, UniProt Q62413); test: Displacement of biotinylated ephrin-A1-Fc from mouse EphA6 Fc preincubated for 1 hr followed by ephrin-A1-FC addition and measured after 4 hrs by ELISA
T1 sequence (Q62413 whole entry): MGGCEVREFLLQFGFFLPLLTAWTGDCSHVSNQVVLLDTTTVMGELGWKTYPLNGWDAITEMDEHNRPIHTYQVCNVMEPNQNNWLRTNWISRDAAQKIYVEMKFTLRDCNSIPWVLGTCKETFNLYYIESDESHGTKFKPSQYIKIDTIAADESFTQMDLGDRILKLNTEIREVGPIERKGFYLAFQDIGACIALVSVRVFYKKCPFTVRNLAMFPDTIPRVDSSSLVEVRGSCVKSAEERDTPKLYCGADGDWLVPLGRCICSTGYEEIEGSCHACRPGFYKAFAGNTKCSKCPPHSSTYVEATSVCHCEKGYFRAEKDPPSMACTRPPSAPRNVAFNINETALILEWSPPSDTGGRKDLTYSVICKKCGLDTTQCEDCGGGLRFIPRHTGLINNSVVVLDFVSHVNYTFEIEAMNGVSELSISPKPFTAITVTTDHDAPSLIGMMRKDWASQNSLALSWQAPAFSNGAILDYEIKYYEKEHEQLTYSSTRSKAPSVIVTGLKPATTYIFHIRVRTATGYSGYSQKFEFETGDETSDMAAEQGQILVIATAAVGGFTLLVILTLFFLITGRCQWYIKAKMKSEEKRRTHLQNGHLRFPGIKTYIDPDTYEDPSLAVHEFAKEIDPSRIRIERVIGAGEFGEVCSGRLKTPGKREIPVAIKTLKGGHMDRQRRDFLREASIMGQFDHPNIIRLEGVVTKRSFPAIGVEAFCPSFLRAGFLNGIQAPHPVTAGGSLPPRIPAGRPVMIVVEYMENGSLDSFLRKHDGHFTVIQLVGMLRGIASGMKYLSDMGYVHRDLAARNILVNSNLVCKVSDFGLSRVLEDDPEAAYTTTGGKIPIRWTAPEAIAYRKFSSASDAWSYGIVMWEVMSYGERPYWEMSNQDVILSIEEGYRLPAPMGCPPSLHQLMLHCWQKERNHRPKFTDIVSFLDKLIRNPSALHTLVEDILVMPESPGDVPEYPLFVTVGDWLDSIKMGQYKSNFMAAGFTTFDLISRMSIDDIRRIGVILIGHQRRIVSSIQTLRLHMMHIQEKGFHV

Ephrin type-A receptor 2 = Ephrin type-A receptor 2 (Mus musculus, UniProt Q03145); test: Displacement of biotinylated ephrin-A1-Fc from recombinant mouse c-terminal His6-tagged EphA2 Fc (Ala22 to Ala535 residues) preincubated for 1 hr followed by ephrin-A1-FC addition and measured after 4 hrs by ELISA
Ephrin type-A receptor 5 = Ephrin type-A receptor 5 (Rattus norvegicus, UniProt P54757); test: Displacement of biotinylated ephrin-A1-Fc from rat EphA5 Fc preincubated for 1 hr followed by ephrin-A1-FC addition and measured after 4 hrs by ELISA
PC-3 = test: Cytotoxicity against human PC3 cells after 2 hrs by LDH assay; format: cell-based; conditions: pc-3, 2 h
Ephrin type-B receptor 4 = biological target: T2, Ephrin type-B receptor 4 (Mus musculus, UniProt P54761); test: Displacement of biotinylated ephrin-B1-Fc from mouse EphB4 Fc preincubated for 1 hr followed by ephrin-B1-FC addition and measured after 4 hrs by ELISA
T2 sequence (P54761 whole entry): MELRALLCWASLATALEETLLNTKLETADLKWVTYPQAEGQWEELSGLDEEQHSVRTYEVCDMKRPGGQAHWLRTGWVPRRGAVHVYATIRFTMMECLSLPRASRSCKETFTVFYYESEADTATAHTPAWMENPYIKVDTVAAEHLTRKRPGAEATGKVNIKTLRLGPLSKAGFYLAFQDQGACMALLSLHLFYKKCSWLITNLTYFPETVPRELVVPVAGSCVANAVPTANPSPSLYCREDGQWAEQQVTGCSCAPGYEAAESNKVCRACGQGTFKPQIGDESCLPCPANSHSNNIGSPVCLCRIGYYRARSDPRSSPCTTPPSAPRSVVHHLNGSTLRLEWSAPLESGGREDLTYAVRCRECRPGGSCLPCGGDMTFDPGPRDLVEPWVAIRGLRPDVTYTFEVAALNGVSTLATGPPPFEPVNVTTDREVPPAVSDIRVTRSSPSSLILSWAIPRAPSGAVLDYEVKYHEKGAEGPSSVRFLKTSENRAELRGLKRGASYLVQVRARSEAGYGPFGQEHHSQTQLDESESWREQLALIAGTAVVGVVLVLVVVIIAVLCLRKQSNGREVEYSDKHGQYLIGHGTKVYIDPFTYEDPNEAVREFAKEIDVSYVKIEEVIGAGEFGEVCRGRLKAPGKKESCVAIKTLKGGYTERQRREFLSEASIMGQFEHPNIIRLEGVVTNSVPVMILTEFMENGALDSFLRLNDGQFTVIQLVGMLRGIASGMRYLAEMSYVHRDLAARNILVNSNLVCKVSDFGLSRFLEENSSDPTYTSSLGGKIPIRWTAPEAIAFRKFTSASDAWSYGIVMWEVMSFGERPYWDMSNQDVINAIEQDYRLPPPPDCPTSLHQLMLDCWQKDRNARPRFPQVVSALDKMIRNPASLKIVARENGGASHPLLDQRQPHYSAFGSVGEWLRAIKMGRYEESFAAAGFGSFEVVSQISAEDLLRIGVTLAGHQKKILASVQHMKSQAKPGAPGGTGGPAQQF

HUVEC = test: Antiangiogenic activity in HUVEC assessed as reduction in number of polygons formation after 16 hrs by matrigel-based microscopic analysis; conditions: Homo sapiens

Sequence of Ephrin type-A receptor 5 (P54757 whole entry): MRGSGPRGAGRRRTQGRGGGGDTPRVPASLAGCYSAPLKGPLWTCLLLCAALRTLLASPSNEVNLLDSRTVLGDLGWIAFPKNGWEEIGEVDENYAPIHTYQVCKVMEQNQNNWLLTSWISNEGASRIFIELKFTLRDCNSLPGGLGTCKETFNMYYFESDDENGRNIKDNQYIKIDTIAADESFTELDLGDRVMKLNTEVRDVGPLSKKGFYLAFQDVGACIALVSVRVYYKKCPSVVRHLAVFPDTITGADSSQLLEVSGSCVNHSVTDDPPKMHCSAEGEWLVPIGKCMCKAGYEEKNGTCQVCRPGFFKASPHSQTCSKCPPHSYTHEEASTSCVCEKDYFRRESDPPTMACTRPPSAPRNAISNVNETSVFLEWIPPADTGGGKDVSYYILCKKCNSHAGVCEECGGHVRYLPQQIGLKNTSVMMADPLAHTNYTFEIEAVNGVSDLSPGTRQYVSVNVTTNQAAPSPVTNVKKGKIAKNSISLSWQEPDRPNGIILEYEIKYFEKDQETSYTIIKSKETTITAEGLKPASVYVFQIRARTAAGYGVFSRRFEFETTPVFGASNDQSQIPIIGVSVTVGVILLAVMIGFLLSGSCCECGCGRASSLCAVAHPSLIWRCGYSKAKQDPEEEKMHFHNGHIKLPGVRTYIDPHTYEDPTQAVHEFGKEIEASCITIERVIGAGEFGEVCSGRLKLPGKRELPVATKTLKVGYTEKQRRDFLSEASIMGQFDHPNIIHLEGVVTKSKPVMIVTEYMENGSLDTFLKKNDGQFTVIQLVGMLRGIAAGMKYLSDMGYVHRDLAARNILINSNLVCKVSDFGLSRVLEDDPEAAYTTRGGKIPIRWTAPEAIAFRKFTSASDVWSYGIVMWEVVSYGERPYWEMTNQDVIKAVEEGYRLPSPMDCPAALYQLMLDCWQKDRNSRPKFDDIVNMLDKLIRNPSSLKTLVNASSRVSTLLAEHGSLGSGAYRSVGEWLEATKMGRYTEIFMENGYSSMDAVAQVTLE
Sequence of Ephrin type-A receptor 2 (Q03145 whole entry): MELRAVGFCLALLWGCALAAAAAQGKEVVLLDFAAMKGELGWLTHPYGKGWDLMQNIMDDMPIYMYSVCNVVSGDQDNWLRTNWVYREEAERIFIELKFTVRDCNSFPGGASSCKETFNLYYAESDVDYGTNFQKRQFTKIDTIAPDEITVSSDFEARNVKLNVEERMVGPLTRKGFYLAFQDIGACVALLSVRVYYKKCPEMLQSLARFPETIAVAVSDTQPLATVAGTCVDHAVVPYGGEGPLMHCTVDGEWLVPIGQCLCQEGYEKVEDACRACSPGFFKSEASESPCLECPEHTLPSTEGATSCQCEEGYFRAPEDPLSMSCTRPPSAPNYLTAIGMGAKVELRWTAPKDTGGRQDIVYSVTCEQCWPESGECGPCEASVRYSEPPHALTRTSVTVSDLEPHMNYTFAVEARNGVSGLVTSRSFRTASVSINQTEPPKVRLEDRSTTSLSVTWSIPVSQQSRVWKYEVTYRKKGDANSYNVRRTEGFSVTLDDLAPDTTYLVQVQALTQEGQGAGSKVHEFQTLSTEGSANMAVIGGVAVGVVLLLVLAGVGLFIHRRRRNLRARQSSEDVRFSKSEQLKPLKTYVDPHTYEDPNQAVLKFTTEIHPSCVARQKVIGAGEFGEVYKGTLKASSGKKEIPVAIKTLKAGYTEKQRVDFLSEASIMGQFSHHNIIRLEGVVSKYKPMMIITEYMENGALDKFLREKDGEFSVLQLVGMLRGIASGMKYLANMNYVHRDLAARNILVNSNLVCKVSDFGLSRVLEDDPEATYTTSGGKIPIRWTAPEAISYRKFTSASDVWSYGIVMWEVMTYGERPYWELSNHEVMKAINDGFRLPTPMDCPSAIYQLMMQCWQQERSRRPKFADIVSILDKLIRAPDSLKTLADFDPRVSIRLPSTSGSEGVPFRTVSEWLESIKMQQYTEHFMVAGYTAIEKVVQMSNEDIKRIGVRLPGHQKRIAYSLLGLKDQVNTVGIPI
Sequence of Ephrin type-A receptor 7 (Q61772 whole entry): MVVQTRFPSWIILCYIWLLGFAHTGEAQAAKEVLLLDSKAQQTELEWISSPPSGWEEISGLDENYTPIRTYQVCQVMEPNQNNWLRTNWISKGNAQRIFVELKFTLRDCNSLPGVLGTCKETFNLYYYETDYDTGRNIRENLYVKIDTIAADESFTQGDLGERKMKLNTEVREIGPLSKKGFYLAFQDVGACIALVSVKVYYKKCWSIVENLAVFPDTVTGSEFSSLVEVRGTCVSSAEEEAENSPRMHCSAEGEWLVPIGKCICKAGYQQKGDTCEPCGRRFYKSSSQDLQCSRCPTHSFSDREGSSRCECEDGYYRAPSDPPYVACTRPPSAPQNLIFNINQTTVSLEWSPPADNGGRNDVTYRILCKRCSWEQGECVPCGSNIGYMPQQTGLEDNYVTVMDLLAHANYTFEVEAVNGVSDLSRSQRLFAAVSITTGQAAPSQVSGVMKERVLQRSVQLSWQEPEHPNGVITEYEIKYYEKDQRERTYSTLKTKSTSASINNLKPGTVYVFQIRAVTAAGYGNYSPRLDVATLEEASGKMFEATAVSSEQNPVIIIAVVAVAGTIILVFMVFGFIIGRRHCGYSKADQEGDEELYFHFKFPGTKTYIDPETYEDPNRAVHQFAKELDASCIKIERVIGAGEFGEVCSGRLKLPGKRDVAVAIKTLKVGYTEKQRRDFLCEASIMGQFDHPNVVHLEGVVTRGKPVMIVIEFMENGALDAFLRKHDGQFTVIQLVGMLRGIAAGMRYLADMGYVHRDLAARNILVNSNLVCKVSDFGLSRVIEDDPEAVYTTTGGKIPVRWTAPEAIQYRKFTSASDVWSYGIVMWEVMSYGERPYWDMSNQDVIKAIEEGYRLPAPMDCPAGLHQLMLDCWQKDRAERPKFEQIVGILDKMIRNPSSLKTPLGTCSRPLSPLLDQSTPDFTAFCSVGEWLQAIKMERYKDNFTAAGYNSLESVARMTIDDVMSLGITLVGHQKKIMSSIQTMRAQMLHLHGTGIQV

In the case of `CCNC(=O)O[C@@H]1CC[C@@]2(C)[C@H](CC[C@@H]3[C@@H]2CC[C@]2(C)[C@@H]([C@H](C)CCC(=O)N[C@H](CC(=O)O)Cc4c[nH]c5ccccc45)CC[C@@H]32)C1`, the IC50 (Ephrin type-A receptor 7) is reported as greater than 30 µM, the IC50 (Ephrin type-A receptor 6) is reported as 18 µM and the IC50 (Ephrin type-A receptor 2) is reported as 0.95 µM. The IC50 (Ephrin type-A receptor 5) was 4.4 µM, the Activity (PC-3) was “Non-Toxic” and the IC50 (Ephrin type-B receptor 4) was greater than 30 µM. It also gave an IC50 (HUVEC) of 3 µM.
